Laboratory results taken from the Kinase Knowledgebase extract (Sharma et al. 2016).

What was measured:
[1] = target: EGFR (Human), P00533 [T790M/L858R]; details: h1975
[2] = target: EGFR (Human), P00533 [Assessment of HCC827 (EGFR Del) Cell Proliferation]
[3] = target: EGFR (human), P00533 [WT]; details: a549
[4] = target: EGFR (human), P00533 [WT]; details: a431
[5] = target: EGFR (human), P00533 [L858R]
[6] = target: EGFR (human), P00533 [T790M]
[7] = target: EGFR (Human), P00533 [T790M/L858R]

Sequence of EGFR (Human), P00533 [T790M/L858R] (P00533 whole entry T790M/L858R, looked up): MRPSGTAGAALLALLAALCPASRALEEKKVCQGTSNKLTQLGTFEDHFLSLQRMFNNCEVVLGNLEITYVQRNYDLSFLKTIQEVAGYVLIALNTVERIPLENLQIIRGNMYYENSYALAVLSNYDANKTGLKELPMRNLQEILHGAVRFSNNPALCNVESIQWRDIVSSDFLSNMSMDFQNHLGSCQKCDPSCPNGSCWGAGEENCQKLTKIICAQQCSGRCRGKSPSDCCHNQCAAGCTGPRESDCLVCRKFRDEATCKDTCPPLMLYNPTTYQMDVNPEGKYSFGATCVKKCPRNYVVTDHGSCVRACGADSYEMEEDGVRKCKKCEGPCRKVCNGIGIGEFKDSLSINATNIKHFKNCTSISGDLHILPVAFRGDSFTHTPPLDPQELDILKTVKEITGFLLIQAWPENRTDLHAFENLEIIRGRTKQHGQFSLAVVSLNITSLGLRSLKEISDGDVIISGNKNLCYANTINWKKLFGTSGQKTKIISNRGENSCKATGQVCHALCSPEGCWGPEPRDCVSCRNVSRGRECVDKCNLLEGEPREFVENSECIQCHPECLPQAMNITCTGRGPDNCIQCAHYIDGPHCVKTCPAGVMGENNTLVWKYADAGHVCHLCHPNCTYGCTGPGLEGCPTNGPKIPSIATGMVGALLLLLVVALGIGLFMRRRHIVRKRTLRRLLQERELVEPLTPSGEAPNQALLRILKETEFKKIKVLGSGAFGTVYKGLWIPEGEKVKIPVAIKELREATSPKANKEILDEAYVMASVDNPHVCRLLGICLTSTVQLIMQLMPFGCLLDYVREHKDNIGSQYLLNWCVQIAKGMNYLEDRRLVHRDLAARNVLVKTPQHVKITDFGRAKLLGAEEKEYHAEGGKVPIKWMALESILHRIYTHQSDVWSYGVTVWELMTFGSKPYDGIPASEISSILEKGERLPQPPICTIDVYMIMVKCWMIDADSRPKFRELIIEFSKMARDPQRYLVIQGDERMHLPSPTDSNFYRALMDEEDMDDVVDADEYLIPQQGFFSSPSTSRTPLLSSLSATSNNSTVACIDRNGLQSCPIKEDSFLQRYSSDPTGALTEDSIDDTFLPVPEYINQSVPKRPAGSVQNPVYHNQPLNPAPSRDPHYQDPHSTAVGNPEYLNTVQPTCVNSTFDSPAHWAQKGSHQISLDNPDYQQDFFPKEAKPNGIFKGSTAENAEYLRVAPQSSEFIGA
Sequence of EGFR (Human), P00533 [Assessment of HCC827 (EGFR Del) Cell Proliferation] (P00533 whole entry, looked up, stated change not applied): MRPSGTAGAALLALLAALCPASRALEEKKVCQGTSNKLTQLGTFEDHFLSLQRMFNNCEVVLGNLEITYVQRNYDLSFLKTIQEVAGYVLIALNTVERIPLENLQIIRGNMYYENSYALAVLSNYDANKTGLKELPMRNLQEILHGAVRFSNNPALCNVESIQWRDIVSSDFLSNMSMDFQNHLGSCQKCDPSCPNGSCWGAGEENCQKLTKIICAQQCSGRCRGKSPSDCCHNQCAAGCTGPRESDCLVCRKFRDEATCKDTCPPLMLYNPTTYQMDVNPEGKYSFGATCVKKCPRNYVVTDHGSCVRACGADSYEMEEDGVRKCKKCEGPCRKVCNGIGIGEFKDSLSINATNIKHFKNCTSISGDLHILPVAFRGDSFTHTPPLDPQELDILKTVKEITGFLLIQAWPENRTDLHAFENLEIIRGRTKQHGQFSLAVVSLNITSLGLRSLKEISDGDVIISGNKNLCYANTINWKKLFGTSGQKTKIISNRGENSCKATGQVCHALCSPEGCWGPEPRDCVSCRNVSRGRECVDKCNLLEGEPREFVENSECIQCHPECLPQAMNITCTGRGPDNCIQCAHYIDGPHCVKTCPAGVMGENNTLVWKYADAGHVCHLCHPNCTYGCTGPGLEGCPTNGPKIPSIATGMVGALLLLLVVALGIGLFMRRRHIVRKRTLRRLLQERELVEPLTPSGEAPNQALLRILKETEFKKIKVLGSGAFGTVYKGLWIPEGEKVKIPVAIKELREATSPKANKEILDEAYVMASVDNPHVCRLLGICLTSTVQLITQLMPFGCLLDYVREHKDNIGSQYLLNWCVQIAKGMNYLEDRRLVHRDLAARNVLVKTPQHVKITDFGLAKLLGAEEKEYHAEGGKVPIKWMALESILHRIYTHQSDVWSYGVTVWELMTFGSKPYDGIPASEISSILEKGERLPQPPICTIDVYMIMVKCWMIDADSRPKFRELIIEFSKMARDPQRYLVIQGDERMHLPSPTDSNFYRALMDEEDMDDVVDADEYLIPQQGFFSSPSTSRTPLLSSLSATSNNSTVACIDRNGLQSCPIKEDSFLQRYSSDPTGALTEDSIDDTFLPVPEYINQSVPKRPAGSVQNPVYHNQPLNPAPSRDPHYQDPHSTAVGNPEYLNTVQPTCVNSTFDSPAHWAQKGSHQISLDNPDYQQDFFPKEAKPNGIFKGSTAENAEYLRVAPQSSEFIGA
Sequence of EGFR (human), P00533 [WT] (P00533 whole entry, looked up): as the sequence (P00533 whole entry, looked up, stated change not applied) above
Sequence of EGFR (human), P00533 [L858R] (P00533 whole entry L858R, looked up): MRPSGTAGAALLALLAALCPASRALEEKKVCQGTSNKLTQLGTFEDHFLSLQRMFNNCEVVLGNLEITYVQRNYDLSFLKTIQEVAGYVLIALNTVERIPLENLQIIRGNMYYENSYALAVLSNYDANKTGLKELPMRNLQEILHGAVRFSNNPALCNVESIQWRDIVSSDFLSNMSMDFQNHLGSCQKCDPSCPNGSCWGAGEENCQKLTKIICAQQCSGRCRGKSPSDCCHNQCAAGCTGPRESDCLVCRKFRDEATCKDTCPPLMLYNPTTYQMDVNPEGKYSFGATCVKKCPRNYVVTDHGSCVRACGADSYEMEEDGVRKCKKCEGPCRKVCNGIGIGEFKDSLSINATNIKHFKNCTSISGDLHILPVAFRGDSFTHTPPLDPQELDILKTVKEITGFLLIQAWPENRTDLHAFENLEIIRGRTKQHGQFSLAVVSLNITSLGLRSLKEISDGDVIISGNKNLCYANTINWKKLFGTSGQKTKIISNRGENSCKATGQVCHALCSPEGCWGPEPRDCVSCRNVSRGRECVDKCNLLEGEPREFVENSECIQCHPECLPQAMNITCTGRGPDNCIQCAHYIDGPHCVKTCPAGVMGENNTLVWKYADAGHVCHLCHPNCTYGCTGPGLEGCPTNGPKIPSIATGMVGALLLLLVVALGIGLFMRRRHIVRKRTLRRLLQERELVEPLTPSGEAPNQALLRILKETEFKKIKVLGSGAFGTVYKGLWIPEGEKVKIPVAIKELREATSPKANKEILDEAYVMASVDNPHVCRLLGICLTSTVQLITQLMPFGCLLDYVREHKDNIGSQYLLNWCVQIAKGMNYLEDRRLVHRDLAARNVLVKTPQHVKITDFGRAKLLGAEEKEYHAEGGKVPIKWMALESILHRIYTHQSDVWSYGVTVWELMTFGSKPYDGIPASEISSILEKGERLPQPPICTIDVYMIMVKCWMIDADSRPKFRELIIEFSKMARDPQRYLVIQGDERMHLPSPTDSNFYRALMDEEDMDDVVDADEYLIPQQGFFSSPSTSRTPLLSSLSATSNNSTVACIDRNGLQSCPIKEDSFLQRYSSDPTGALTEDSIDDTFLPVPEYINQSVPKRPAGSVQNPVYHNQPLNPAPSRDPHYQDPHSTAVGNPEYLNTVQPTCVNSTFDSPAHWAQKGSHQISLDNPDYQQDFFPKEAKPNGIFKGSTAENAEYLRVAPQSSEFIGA

SMILES	IC50 [1] [nM]	IC50 [2] [nM]	IC50 [3] [nM]	IC50 [4] [nM]	IC50 [5] [nM]	IC50 [6] [nM]	IC50 [7] [nM]
COc1cc(N2CCOCC2)ccc1Nc1ncc(Cl)c(Nc2ccccc2C(=O)C(=O)N(C)C)n1	1950	1940					
C=CC(=O)Nc1cc(Nc2ncc(Cl)c(Nc3ccccc3C(=O)C(=O)N(C)C)n2)ccc1OC	20	120					
C=CC(=O)Nc1cc(Nc2ncc(Cl)c(Nc3ccccc3C(=O)C(=O)N(C)C)n2)c(OC)cc1F	50	120					
C=C(CN1CCOCC1)C(=O)Nc1cccc(Nc2ncc(Cl)c(Nc3ccccc3C(=O)C(=O)N(C)C)n2)c1	10	30	40	100			
COc1cc(Nc2ncc(Cl)c(Nc3ccccc3C(=O)C(=O)N(C)C)n2)ccc1N1CCC(N(C)C)CC1	10	20	1890	10			
C/C=C/C(=O)Nc1ccc(OC)c(Nc2ncc(Cl)c(Nc3ccccc3C(=O)C(=O)N(C)C)n2)c1	310	1050	1370				
COc1cc(N2CCC(N(C)C)CC2)ccc1Nc1ncc(Cl)c(Nc2ccccc2C(=O)C(=O)N(C)C)n1	860	1230		260			
COc1cc(N2CCC(N(C)C)CC2)ccc1Nc1ncc(Cl)c(Nc2ccccc2C(=O)C(=O)N2CCOCC2)n1	2860						
C=CC(=O)Nc1cccc(Nc2ncc(Cl)c(Nc3ccccc3C(=O)C(=O)N(C)C)n2)c1	10	70	640				
COc1cc(Nc2ncc(Cl)c(Nc3ccccc3C(=O)C(=O)N(C)C)n2)ccc1F		2330					
C=CC(=O)Nc1cc(Nc2ncc(Cl)c(Nc3ccccc3C(=O)C(=O)N(C)C)n2)c(OC)cc1N1CCN(C)CC1	50	30	620	50			
C=CC(=O)Nc1ccc(OC)c(Nc2ncc(Cl)c(Nc3ccccc3C(=O)C(=O)N(CC)CC)n2)c1	10	50		750			
C=C(CN(C)CCN(C)C)C(=O)Nc1ccc(OC)c(Nc2ncc(Cl)c(Nc3ccccc3C(=O)C(=O)N(C)C)n2)c1	10	20		210			
COc1cc(N2CCN(C(C)=O)CC2)ccc1Nc1ncc(Cl)c(Nc2ccccc2C(=O)C(=O)N(C)C)n1	210	540		50			
C=CC(=O)Nc1cc(Nc2ncc(Cl)c(Nc3ccccc3C(=O)C(=O)NC)n2)c(F)cc1OC	650	1200					
C=CC(=O)Nc1ccc(OC)c(Nc2ncc(Cl)c(Nc3ccccc3C(=O)C(=O)N(C)C)n2)c1	20	20	1580	110			
CNC(=O)C(=O)c1ccccc1Nc1nc(Nc2ccc(N3CCN(C)CC3)c(OC)c2)ncc1Cl	150	870	2080				
COc1cc(N2CCN(C)CC2)ccc1Nc1ncc(Cl)c(Nc2ccccc2C(=O)C(=O)N(C)C)n1	810	1630					
C=CC(=O)Nc1cccc(Nc2ncc(C(F)(F)F)c(Nc3ccccc3C(=O)C(N)=O)n2)c1	980	530	370				
COc1cc(N2CCC(N(C)C)CC2)ccc1Nc1ncc(Cl)c(Nc2ccccc2C(=O)C(N)=O)n1		2630			44.3	7.52	4.08
C=CC(=O)Nc1cc(Nc2ncc(Cl)c(Nc3ccccc3C(=O)C(=O)NC)n2)ccc1OC	90	450					
COc1cc(N2CCN(C)CC2)ccc1Nc1ncc(Cl)c(Nc2ccccc2C(=O)C(=O)N2CCOCC2)n1	1230	2360					
CNC(=O)C(=O)c1ccccc1Nc1nc(Nc2ccc(N3CCC(N(C)C)CC3)cc2OC)ncc1Cl	1130	900					
C=CC(=O)N1CCC(NC(=O)C(=O)c2ccccc2Nc2nc(Nc3ccc(F)c(OC)c3)ncc2Cl)CC1	190						
C=CC(=O)Nc1cc(Nc2ncc(Cl)c(Nc3ccccc3C(=O)C(=O)N(C)C)n2)c(F)cc1OC	310	1200					
COc1cc(N2CCC(N(C)C)CC2)ccc1Nc1ncc(Cl)c(Nc2ccccc2C(=O)C(=O)NO)n1	840	940					
CNC(=O)C(=O)c1ccccc1Nc1nc(Nc2ccc(F)c(OC)c2)ncc1Cl	640						
C=CC(=O)Nc1cccc(Nc2ncc(Cl)c(Nc3ccccc3C(=O)C(=O)NC)n2)c1	100	270					
